Patent US20220017866A1, “PRODUCTION METHODS FOR MEGAKARYOCYTES AND PLATELETS” (KYOTO UNIVERSITY, priority 2013, published 2022)
Where a SMILES comes first, the peptide text is derived from it. The star is where a group is joined. Cbz = O=C(OCc1ccccc1)*; CH2F = FC*

What was measured:
[1] = system: c-MYC-DD-2A-BMI1-introduced cells
Protocol: (§1) Therefore, the activity of caspase-3/7 in the presence of Shield-1 was then measured.

caspase-3/7 = assay: Caspase-3/7 activity in the presence of Shield-1; format: cell-based, human; conditions: Day 2
Protocol: as §1

[2] = system: megakaryocytic progenitor cells; assay: Expanding culture of c-Myc and BMI1-introduced cells with caspase inhibitor added in place of BCL-XL; format: cell-based, human; conditions: 30 μM added after c-Myc and BMI1 introduction; culture for 66 days
Protocol: In place of expressing BCL-XL, another method for controlling caspase was investigated as follows. After c-Myc and BMI1 were introduced, a caspase inhibitor, i.e., Z-VAD FMK (Merck) (10 μM or 30 μM) was added. In this condition, culture was continued for 66 days. When BCL-XL was expressed, the cells proliferated by 64 times; whereas when 30 μM of Z-VAD FMK was added, the cells proliferated by 21 times (FIG. 10). In contrast, when DMSO was used (negative control), no proliferation was observed. Furthermore, when DMSO was used, the number of Annexin V positive cells was counted. As a result, many Annexin V positive cells were present (66.5%). From this, it was confirmed that apoptosis was not suppressed.

SMILES | toxic effect [1] | number of megakaryocytic progenitor cells ([1]; c-MYC expression stabilized by adding Shield-1, Day 7) | activity of caspase-3/7 (caspase-3/7) | cell proliferation [2]
CC[C@H](C(=O)N1CCCC[C@H]1C(=O)O[C@H](CCc1ccc(OC)c(OC)c1)c1cccc(OCCN2CCOCC2)c1)c1cc(OC)c(OC)c(OC)c1 [Shield-1] | did not have toxic effect | decreased in volume-dependent manner | caspase was activated | –
COC(=O)C[C@H](NC(=O)[C@H](C)NC(=O)[C@@H](NC(=O)OCc1ccccc1)C(C)C)C(=O)CF [Z-VAD FMK] (Cbz-Val-Ala-Asp(OMe)-CH2F) | – | – | – | 21 times
